Data reported in patent publication US7439351B2, “2′ or 3′ -deoxy and 2′, 3′-dideoxy-β-L-pentofuranonucleo-side compounds, method of preparation and application in therapy, especially as anti-viral agents” (The UAB Research Foundation, priority 1993, dated 2008).
pIC50: −log10 of the molar value. “Also recorded” adds a separate entry of the source.

Key:
noninfected CEM-SS cells = assay: Toxic effect on noninfected cells (formazan formation), CEM-SS; settings: at least 50% inhibition of formazan formation, 5 days
Experimental: (§1) The toxic effect on the noninfected cells is assessed by calorimetric reaction based on the capacity of live cells to reduce 3-(4,5-dimethylthiozol-2-yl)-2,5-diphenyltetrazolium bromide to formazan after incubating for 5 days in the presence of various concentrations of the compounds.

noninfected PBM cells = assay: Toxic effect on noninfected cells (formazan formation), PBM; settings: at least 50% inhibition of formazan formation, 5 days
Experimental: as §1

noninfected PBMC = assay: Toxic effect on noninfected cells (formazan formation), PBMC; settings: at least 50% inhibition of formazan formation, 5 days
Experimental: as §1

[1] = test system: herpes simplex viruses (HSV); settings: cell cultures; Spadari et al. 1992; cited from earlier work
HIV [2] = settings: CEM cell culture; Mansuri et al. 1991; read-out: IC50 against HIV; cited from earlier work
HIV [3] = settings: prior art reports; listed as β-L-DDC; cited from earlier work

Nc1nc(=O)n([C@@H]2CC[C@H](CO)O2)cc1F [Compound 21b, 2′,3′-dideoxy-β-L-5-fluorocytidine]
CD50 (noninfected CEM-SS cells): 9e-05 M | CD50 (noninfected PBM cells): 10^−4 M | CD50 (noninfected PBMC): 10^−4 M

Cc1cn([C@@H]2C[C@@H](O)[C@H](CO)O2)c(=O)[nH]c1=O [β-L-Thymidine]
antiviral activity against HSV (in words) [1]: relatively limited antiviral activity

Cc1cn([C@H]2C[C@H](N=[N+]=[N-])[C@@H](CO)O2)c(=O)[nH]c1=O [AZT, reference compound]
CD50 (noninfected CEM-SS cells): >10^−4 M | CD50 (noninfected PBM cells): 7e-05 M | CD50 (noninfected PBMC): 8e-05 M

Nc1ccn([C@@H]2CC[C@H](CO)O2)c(=O)n1 [Compound 21a, 2′,3′-dideoxy-β-L-cytidine]
CD50 (noninfected CEM-SS cells): 8.3e-05 M | CD50 (noninfected PBM cells): 10^−4 M | CD50 (noninfected PBMC): 10^−4 M | pIC50 (HIV [2]): 6.18 | activity against HIV (in words) (HIV [3]): relatively limited antiviral activity; also recorded: no activity against HIV

Nc1ccn([C@H]2CC[C@@H](CO)O2)c(=O)n1 [DDC, reference compound]
CD50 (noninfected CEM-SS cells): 6e-05 M | CD50 (noninfected PBM cells): 7e-05 M | CD50 (noninfected PBMC): 2.5e-05 M
